Measured values as given in the supplement of paper PMC10307832.

Key:
Assay in all cases: relative viability (nuclei count vs DMSO), 5 days (fraction); higher = more cells survive
[1] = compound: O=C(Nc1cc(C(F)(F)F)cc(C(F)(F)F)c1)c1cc(Cl)ccc1O [IMD-0354] + CC(=O)Nc1cccc(-n2c(=O)n(C3CC3)c(=O)c3c(Nc4ccc(I)cc4F)n(C)c(=O)c(C)c32)c1 [Trametinib] (partner 0.02 µM)
How it was run: (§1)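 Relative viability was taken as the ratio of nuclei in treated wells to nuclei in vehicle wells. Lung cancer cell lines in 1536-well plates received compounds by pin tool one day after seeding, either one drug alone or a fixed anchor-drug dose plus five library-drug doses (not always all listed) in √10 steps. Nuclei were counted on 4× images after 5 days of treatment, and values are medians of duplicate plates.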

[2] = compound: Cc1cnc(CNC(=O)c2c(=O)c3ccc(N4CCCN(C)CC4)nc3n3c2sc2ccccc23)cn1 [CX-5461] + Nc1nc2[nH]cc(CCc3ccc(C(=O)N[C@@H](CCC(=O)O)C(=O)O)cc3)c2c(=O)[nH]1 [Pemetrexed] (partner 0.2 µM)
How it was run: as §1

[3] = compound: O=C(Nc1cc(C(F)(F)F)cc(C(F)(F)F)c1)c1cc(Cl)ccc1O [IMD-0354] + Nc1nc2[nH]cc(CCc3ccc(C(=O)N[C@@H](CCC(=O)O)C(=O)O)cc3)c2c(=O)[nH]1 [Pemetrexed] (partner 0.2 µM)
How it was run: as §1

[4] = compound: O=C(Nc1cc(C(F)(F)F)cc(C(F)(F)F)c1)c1cc(Cl)ccc1O [IMD-0354] + COc1cc2c(Oc3ccc(NC(=O)C4(C(=O)Nc5ccc(F)cc5)CC4)cc3F)ccnc2cc1OCCCN1CCOCC1 [Foretinib] (partner 0.25 µM)
How it was run: as §1

Row | Cell Line | relative viability ([1]; first compound 0.04 µM) | relative viability ([1]; first compound 0.1265 µM) | relative viability ([1]; first compound 0.4 µM) | relative viability ([1]; first compound 1.265 µM) | relative viability ([1]; first compound 4 µM) | relative viability ([2]; first compound 0.01 µM) | relative viability ([2]; first compound 0.03162 µM) | relative viability ([2]; first compound 0.1 µM) | relative viability ([2]; first compound 1 µM) | relative viability ([3]; first compound 0.04 µM) | relative viability ([3]; first compound 0.1265 µM) | relative viability ([3]; first compound 0.4 µM) | relative viability ([3]; first compound 1.265 µM) | relative viability ([3]; first compound 4 µM) | relative viability ([2]; first compound 0.3162 µM) | relative viability ([4]; first compound 0.04 µM) | relative viability ([4]; first compound 0.1265 µM) | relative viability ([4]; first compound 0.4 µM) | relative viability ([4]; first compound 1.265 µM) | relative viability ([4]; first compound 4 µM)
1 | NCI-H522 | 0.749 | 0.778 | 0.732 | 0.6 | 0.454 | 1.15 | 1.1 | 0.832 | 0.918 | 1.35 | 0.895 | 0.91 | 0.62 | 0.397 |  |  |  |  |  | 
2 | HCC-15 | 0.387 | 0.35 | 0.335 | 0.269 | 0.146 | 0.232 | 0.232 | 0.215 | 0.204 | 0.211 | 0.215 | 0.198 | 0.175 | 0.172 | 0.233 | 1.03 | 0.891 | 0.636 | 0.178 | 0.152
3 | A-427 | 0.878 | 0.73 | 0.636 | 0.176 | 0.162 | 0.98 | 0.908 | 0.927 | 0.714 | 1.08 | 0.982 | 0.531 | 0.157 | 0.169 | 0.967 | 0.972 | 1.08 | 0.594 | 0.655 | 0.168
4 | NCI-H2228 | 0.472 | 0.454 | 0.43 | 0.171 | 0.232 | 0.355 | 0.369 | 0.312 | 0.182 | 0.379 | 0.37 | 0.292 | 0.22 | 0.125 | 0.305 | 1.05 | 0.921 | 0.416 | 0.515 | 0.17
5 | NCI-H1734 | 0.713 | 0.703 | 0.483 | 0.366 | 0.209 | 0.404 | 0.435 | 0.419 | 0.432 | 0.449 | 0.458 | 0.369 | 0.23 | 0.129 | 0.39 | 0.928 | 0.902 | 0.548 | 0.549 | 0.19
6 | SK-LU-1 | 0.447 | 0.514 | 0.41 | 0.239 | 0.269 | 1.06 | 1.12 | 0.852 | 0.651 | 1.11 | 0.777 | 0.44 | 0.225 | 0.249 | 0.965 | 0.808 | 0.752 | 0.457 | 0.169 | 0.221
7 | PC-14 | 0.945 | 0.826 | 0.301 | 0.359 | 0.109 | 0.134 | 0.134 | 0.118 | 0.113 | 0.128 | 0.116 | 0.105 | 0.14 | 0.0524 | 0.157 | 1.05 | 0.799 | 0.698 | 0.546 | 0.179
8 | NCI-H1915 | 0.321 | 0.309 | 0.324 | 0.249 | 0.12 | 0.536 | 0.509 | 0.487 | 0.495 | 0.557 | 0.469 | 0.357 | 0.399 | 0.163 | 0.496 | 0.976 | 1.15 | 0.491 | 0.818 | 0.272
9 | NCI-H1666 | 0.738 | 0.849 | 0.719 | 0.872 | 0.523 | 0.854 | 0.848 | 1.01 | 0.769 | 0.905 | 1 | 0.708 | 0.832 | 0.824 | 0.828 | 0.99 | 0.982 | 0.842 | 0.441 | 0.351
10 | HCC-366 | 0.479 | 0.404 | 0.251 | 0.0603 | 0.0454 | 0.196 | 0.172 | 0.179 | 0.149 | 0.18 | 0.181 | 0.0918 | 0.0649 | 0.0246 | 0.197 | 0.837 | 1 | 0.441 | 0.216 | 0.046
11 | LK-2 | 0.831 | 0.669 |  | 0.874 | 0.255 | 0.213 | 0.258 | 0.299 | 0.236 | 0.284 | 0.31 |  | 0.172 | 0.111 |  | 1.76 | 1.14 | 0.515 | 1.11 | 0.222
12 | NCI-H661 | 0.532 | 0.512 | 0.397 | 0.308 | 0.256 | 0.928 | 0.902 | 0.855 | 0.722 | 0.955 | 0.921 | 0.484 | 0.331 | 0.207 | 0.802 | 1.06 | 1.01 | 0.681 | 0.295 | 0.24
13 | PC-3 [JPC-3] | 0.825 | 0.676 | 0.65 | 0.399 | 0.267 | 1.18 |  | 1.11 | 0.86 | 1.42 | 1 | 1.03 | 0.305 | 0.405 | 1.15 | 1.07 | 1 | 0.61 | 0.376 | 0.272
14 | NCI-H1623 |  |  |  |  |  |  |  |  |  |  |  |  |  |  |  | 0.896 | 0.908 | 0.764 | 0.687 | 0.457
15 | Calu-6 |  |  |  |  |  |  |  |  |  |  |  |  |  |  |  | 0.941 | 0.829 | 0.579 | 0.172 | 0.101
16 | LC-2-ad | 0.968 | 0.877 | 0.54 | 0.348 | 0.189 | 0.238 | 0.27 | 0.244 | 0.279 | 0.29 | 0.268 | 0.276 | 0.189 | 0.145 | 0.296 | 0.939 | 0.885 | 0.524 | 0.249 | 0.205
17 | CAL-12T | 0.333 | 0.308 | 0.403 | 0.191 | 0.211 | 1.29 | 1.29 | 1.09 | 0.86 | 1.37 | 0.916 | 0.574 | 0.559 | 0.204 | 1.1 | 1.25 | 0.844 | 0.638 | 0.486 | 0.154
